Measurements from patent US12606541B2, “PPARg modulators and methods of use” (Eisai R&D Management Co., Ltd., priority 2020, dated 2026).
Where two headings read alike, the source gives them in different places.

Experiments:
[1] = system: UM-UC-9 engineered cells; assay: Cell proliferation / short-term viability assay, CellTiter-Glo 144 h; assay type: cell-based, human; details: read-out: CTGlo 144 h UMUC9.5, G150
Procedure, shortened: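 UM-UC-9 engineered assay-ready cells seeded at 500 cells/well in high-glucose DMEM/10% FBS, treated from dose-response plates, grown at 37° C, 5% CO2. CellTiter-Glo 2.0 luminescence read on day 7, with a day-0 pretreatment plate as T0 reference and DMSO wells as negative control.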

[2] = biological target: T1, His6-TEV-PPARγ-(234-505) (Homo sapiens, UniProt P37231); assay: TR-FRET Assay to Measure Co-R Peptide Recruitment to PPARγ; assay type: biochemical; details: Co-R peptide (SMRT-ID2) recruitment; top final concentration 20 μM; read-out: TR-FRET i-Ag; AC50
T1 construct: The His6-TEV-PPARγ-(234-505) protein for assay was expressed and purified; TEV cleavage site (N); made in house
T1 sequence (P37231 234-505): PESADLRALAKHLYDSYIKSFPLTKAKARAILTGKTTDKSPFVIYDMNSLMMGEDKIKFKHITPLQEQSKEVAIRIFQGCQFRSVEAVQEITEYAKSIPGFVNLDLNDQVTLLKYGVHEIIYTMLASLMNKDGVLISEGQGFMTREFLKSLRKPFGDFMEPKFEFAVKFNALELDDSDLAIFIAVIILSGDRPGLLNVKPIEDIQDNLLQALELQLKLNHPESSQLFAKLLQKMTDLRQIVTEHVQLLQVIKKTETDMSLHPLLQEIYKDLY
Procedure, shortened: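 His-tagged PPARγ (or controls) was preincubated with compound for 20 minutes at room temperature, then 5 nM anti-His terbium antibody and 200 nM FITC-labeled SMRT-ID2 corepressor peptide (final) were added for a further hour. TR-FRET signal was normalized to percent response using 500 nM T0070907 and DMSO controls.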

Row | AC50 [2] [nM] | Molecule | IC50 [1] [nM] | IC50 ([1]; Homo sapiens, UM-UC-9, 144 h) [nM]
1 | 233 | COc1cc(-c2cc(C(=O)N3CCC(C(=O)NC4CC(=O)N(c5ccccc5)C4)CC3)n[nH]2)c(Cl)cn1 (stereo not drawn) [Example 183, 1-(5-(5-chloro-2-methoxypyridin-4-yl)-1H-pyrazole-3-carbonyl)-N-(5-oxo-1-phenylpyrrolidin-3-yl)piperidine-4-carboxamide] |  | 1650
2 | 347 | COc1cc(-c2cc(C(=O)N3CC[C@H](C(=O)NC4C5CN(C6COC6)CC54)CC34CC4)n[nH]2)c(F)cn1 (stereo partly drawn) [Example 429, (7S)-4-(5-(5-fluoro-2-methoxypyridin-4-yl)-1H-pyrazole-3-carbonyl)-N-(3-(oxetan-3-yl)-3-azabicyclo[3.1.0]hexan-6-yl)-4-azaspiro[2.5]octane-7-carboxamide] |  | 1040
3 | 3.8 | COc1cc(-c2cc(C(=O)N3CC[C@H](C(=O)NC4(c5ncc(Cl)cc5Cl)CC4)CC34CC4)n[nH]2)c(F)cn1 [Example 458, (S)—N-(1-(3,5-dichloropyridin-2-yl)cyclopropyl)-4-(5-(5-fluoro-2-methoxypyridin-4-yl)-1H-pyrazole-3-carbonyl)-4-azaspiro[2.5]octane-7-carboxamide] |  | 26.6
4 | 4.5 | COc1cc(-c2cc(C(=O)N3CC[C@H](C(=O)NC4CCC(CO)(C(F)(F)F)CC4)CC34CC4)n[nH]2)c(F)cn1 (single isomer, unassigned) [Example 408-A] | 3.9 | 
5 | 149 | COc1cc(-c2cc(C(=O)N3CC[C@H](C(=O)Nc4cnn5c4CC(O)CC5)CC34CC4)n[nH]2)c(F)cn1 (single isomer, unassigned) [Example 514-A] | 4200 | 
6 | 697 | COc1cc(-c2cc(C(=O)N3CCC(C(=O)NCC4(C)OCCCO4)CC3)n[nH]2)c(Cl)cn1 [Example 216, 1-(5-(5-chloro-2-methoxypyridin-4-yl)-1H-pyrazole-3-carbonyl)-N-((2-methyl-1,3-dioxan-2-yl)methyl)piperidine-, 1-carboxamide] |  | 3100
7 | 62.6 | COc1cc(-c2cc(C(=O)N3CC[C@H](C(=O)NC4CCNC4)CC34CC4)n[nH]2)c(F)cn1 (stereo partly drawn) [Example 471, (7S)-4-(5-(5-fluoro-2-methoxypyridin-4-yl)-1H-pyrazole-3-carbonyl)-N-(pyrrolidin-3-yl)-4-azaspiro[2.5]octane-7-carboxamide] |  | > 10000
8 | 268 | COc1cc(-c2cc(C(=O)N3CCC(C(=O)Nc4cccc(C(F)F)c4)CC3)n[nH]2)c(Cl)cn1 [Example 147, 1-(5-(5-chloro-2-methoxypyridin-4-yl)-1H-pyrazole-3-carbonyl)-N-(3-(difluoromethyl)phenyl)piperidine-4-carboxamide] |  | 955
9 | 327 | COc1cc(-c2cc(C(=O)N3CCC(C(=O)NCc4cc(C(F)F)on4)CC3)n[nH]2)c(Cl)cn1 [Example 225, 1-(5-(5-chloro-2-methoxypyridin-4-yl)-1H-pyrazole-3-carbonyl)-N-((5-(difluoromethyl)isoxazol-3-yl)methyl)piperidine-4-carboxamide] |  | 1720
10 | 24 | COc1cc(-c2cc(C(=O)N3CCC(C(=O)NCc4cccc5[nH]ccc45)CC3)n[nH]2)c(Cl)cn1 [Example 190, N-((1H-indol-4-yl)methyl)-1-(5-(5-chloro-2-methoxypyridin-4-yl)-1H-pyrazole-3-carbonyl)piperidine-4-carboxamide] |  | 91.8
11 | 78.4 | COc1cc(-c2cc(C(=O)N3CCC(C(=O)Nc4cccc5[nH]ccc45)CC3)n[nH]2)c(Cl)cn1 [Example 261, 1-(5-(5-chloro-2-methoxypyridin-4-yl)-1H-pyrazole-3-carbonyl)-N-(1H-indol-4-yl)piperidine-4-carboxamide] |  | 490
12 | 433 | COc1cc(-c2cc(C(=O)N3CC[C@H](C(=O)NC(C)c4cc5n(n4)CCN(C)C5)CC34CC4)n[nH]2)c(F)cn1 (single isomer, unassigned) [Example 475-A] | 2840 | 
13 | 24.6 | COc1cc(-c2cc(C(=O)N3CCC(C(=O)NCc4cc(F)ccc4Cl)CC3)n[nH]2)c(Cl)cn1 [Example 125, 1-(5-(5-chloro-2-methoxypyridin-4-yl)-1H-pyrazole-3-carbonyl)-N-(2-chloro-5-fluorobenzyl)piperidine-4-carboxamide] |  | 301
14 | 41.7 | COc1cc(-c2cc(C(=O)N3CCC(C(=O)NCc4cn(C)c5ccccc45)CC3)n[nH]2)c(Cl)cn1 [Example 187, 1-(5-(5-chloro-2-methoxypyridin-4-yl)-1H-pyrazole-3-carbonyl)-N-((1-methyl-1H-indol-3-yl)methyl)piperidine-4-carboxamide] |  | 114
15 | 12.3 | COc1cc(-c2cc(C(=O)N3CC[C@H](C(=O)Nc4cnn5ccc(C)nc45)CC34CC4)n[nH]2)c(F)cn1 [Example 381, (S)-4-(5-(5-fluoro-2-methoxypyridin-4-yl)-1H-pyrazole-3-carbonyl)-N-(5-methylpyrazolo[1,5-a]pyrimidin-3-yl)-4-azaspiro[2.5]octane-7-carboxamide] |  | 5.8
16 | 0.9 | COc1cc(-c2cc(C(=O)N3CC[C@H](C(=O)NC4CCN(c5ccc(C#N)nc5)C4)CC34CC4)n[nH]2)c(F)cn1 (stereo partly drawn) [Example 488, (7S)—N-(1-(6-cyanopyridin-3-yl)pyrrolidin-3-yl)-4-(5-(5-fluoro-2-methoxypyridin-4-yl)-1H-pyrazole-3-carbonyl)-4-azaspiro[2.5]octane-7-carboxamide] |  | 6.6
17 | 4.6 | COc1cc(-c2cc(C(=O)N3CCC(C(=O)NC4CCC(O)(C(F)(F)F)C(O)C4)CC34CC4)n[nH]2)c(F)cn1 (mixture of isomers) [Example 474-B] | 50.6 | 
18 | 13.8 | COc1cc(-c2cc(C(=O)N3CCC(C(=O)NCc4nn(C)c5ccccc45)CC3)n[nH]2)c(Cl)cn1 [Example 218, 1-(5-(5-chloro-2-methoxypyridin-4-yl)-1H-pyrazole-3-carbonyl)-N-((1-methyl-1H-indazol-3-yl)methyl)piperidine-4-carboxamide] |  | 138

Row | Molecule | AC50 [2] [nM] | IC50 [1] [nM] | IC50 ([1]; Homo sapiens, UM-UC-9, 144 h) [nM]
19 | COc1cc(-c2cc(C(=O)N3CCC(C(=O)NC4CCN(C5COC56CCC6)C4)CC34CC4)n[nH]2)c(F)cn1 (mixture of isomers) [Example 464] | 9.3 | 36.4 | 
20 | COc1cc(-c2cc(C(=O)N3[C@@H]4CC[C@H]3C[C@H](C(=O)NC3CC[Si](C)(C)CC3)C4)n[nH]2)c(F)cn1 [Example 291, (1R,3s,5S)—N-(1,1-dimethylsilinan-4-yl)-8-(5-(5-fluoro-2-methoxypyridin-4-yl)-1H-pyrazole-3-carbonyl)-8-azabicyclo[3.2.1]octane-3-carboxamide] | 69.6 |  | 150
21 | COc1cc(-c2cc(C(=O)N3CCC(C(=O)Nc4cnn5c4CC(O)CC5)CC34CC4)n[nH]2)c(F)cn1 (mixture of isomers) [Example 514, (S)-4-(5-(5-fluoro-2-methoxypyridin-4-yl)-1H-pyrazole-3-carbonyl)-N—((S)-5-hydroxy-4,5,6,7-tetrahydropyrazolo[1,5-a]pyridin-3-yl)-4-azaspiro[2.5]octane-7-carboxamide and (S)-4-(5-(5-fluoro-2-methoxypyridin-4-yl)-1H-pyrazole-3-carbonyl)-N—((R)-5-hydroxy-4,5,6,7-tetrahydropyrazolo[1,5-a]pyridin-3-yl)-4-azaspiro[2.5]octane-7-carboxamide] | 33.7 | > 10000 | 
22 | COc1cc(-c2nc(C(=O)N3[C@@H]4CC[C@H]3CC(C(=O)NC3CCC(O)(C(F)(F)F)CC3)C4)n[nH]2)c(F)cn1 (stereo partly drawn) [Example 305, (1R,3S,5S)-8-[5-(5-fluoro-2-methoxypyridin-4-yl)-1H-1,2,4-triazole-3-carbonyl]-N-[(1r,4r)-4-hydroxy-4-(trifluoromethyl)cyclohexyl]-8-azabicyclo[3.2.1]octane-3-carboxamide] | 217 | 2270 | 
23 | (S)-4-(5-(5-fluoro-2-methoxypyridin-4-yl)-1H-pyrazole-3-carbonyl)-N-((1s,4R)-4-(hydroxymethyl)-4-(trifluoromethyl)cyclohexyl)-4-azaspiro[2.5]octane-7-carboxamide and (S)-4-(5-(5-fluoro-2-methoxypyridin-4-yl)-1H-pyrazole-3-carbonyl)-N-((1r,4S)-4-(hydroxymethyl)-4-(trifluoromethyl)cyclohexyl)-4-azaspiro[2.5]octane-7-carboxamide [Example 408] | 6.3 | 7.2 | 
24 | COc1cc(-c2cc(C(=O)N3[C@@H]4CC[C@H]3C[C@H](C(=O)NC3CCC(N)(C(F)(F)F)CC3)C4)n[nH]2)c(F)cn1 (stereo partly drawn) [Example 441, (1R,3s,5S)—N-(4-amino-4-(trifluoromethyl)cyclohexyl)-8-(5-(5-fluoro-2-methoxypyridin-4-yl)-1H-pyrazole-3-carbonyl)-8-azabicyclo[3.2.1]octane-3-carboxamide] | 56.7 |  | 350
